From a melting point compilation (Tetko et al.; mined from patent text by program, amines drawn as free bases though some values may be those of a salt)

First: CN1C(=O)CC[C@]2(C)c3ccc(NC(=O)c4ccc([N+](=O)[O-])cc4)cc3CC[C@@H]12
Second: N=C(N)c1ccc2c(c1)N(CC(=O)c1ccc(Br)cc1)C(=O)CN2
The melting point of the first is higher: 269 to 270 °C for the first, 145 to 150 °C for the second.

First: CCCCCCOc1ccc2cc(C(C)C(=O)O)ccc2c1 (stereo not drawn)
Second: CCCNC(=O)C(Cc1ccc2c(c1)c(Cc1ccc(C(=O)OC)cc1OC)cn2CCC)C(C)C (stereo not drawn)
The melting point of the first is lower: 88 to 91 °C for the first, 123 to 125 °C for the second.

Compared with `Cc1c(C)c2c(c(C)c1O)CCC(C)(COc1ccc(NC(=S)NC(c3ccccc3)c3ccccc3)cc1)O2` (stereo not drawn), `CS(=O)(=O)C(=C1CN(C(c2ccccc2)c2ccccc2)C1)c1cccc2ccccc12` is higher in melting point: 146 to 148 °C for the first, 196 °C for the second.

First: O=C1C(=Cc2ccc(Br)cc2)CCc2cc(OCCn3ccnc3)ccc21
Second: Cc1ccc(S(=O)(=O)n2c(-c3cn(C)c4ccc(C=O)cc34)cc3cccnc32)cc1
The melting point of the first is lower: 152 to 153 °C for the first, 188 to 189 °C for the second.

First: CCn1cc(C(=O)NC2CCCc3ccccc32)c(=O)c2cnc(N3CCCC3)nc21 (stereo not drawn)
Second: O=C(Nc1ccc(Oc2ccnc(N3CCCC(O)C3)n2)c2ccccc12)c1cc(F)cc(N2CCCCC2)c1 (stereo not drawn)
The melting point of the first is higher: 284 to 286 °C for the first, 93 to 95 °C for the second.

First: CC(C)(C)c1nc(C(=O)c2nccs2)nc(C(C)(C)C)c1O
Second: CC=Cc1c(-c2ccc(C(C)(C)C)cc2)[nH]c2nccnc12
The melting point of the first is lower: 181 to 184 °C for the first, 207 to 208 °C for the second.

Compared with `O=C(O)CCCC1NCC2CCCN3CCCC1C23` (stereo not drawn), `O=C(O)CNC(=Nc1ccc(C(=O)O)cc1)NCC1CCCCC1` is lower in melting point: 185 to 187 °C for the first, 164 °C for the second.

First: CC(C)n1nc(-c2sc(NC(=O)N(C)C)nc2-c2ccccc2)ccc1=O
Second: CCn1nc(-c2nc(C(N)=O)c(N)nc2-c2ccccc2)ccc1=O
The melting point of the first is lower: 199 to 200 °C for the first, greater than 250 °C for the second.

First: Cn1c2cc(Cl)ccc2c2oc(C(=O)Cl)cc21
Second: CN(C=O)c1c2oc3ccccc3c2nn1C
The melting point of the first is higher: 154 to 156 °C for the first, 135 to 138 °C for the second.

Compared with `O=c1[nH]c2ccc(C(O)CN3CCC(O)(c4ccccc4)CC3)cc2o1` (stereo not drawn), `O=C1c2ccccc2CCC1CN1CCC(O)(c2ccc(Cl)cc2)CC1` (stereo not drawn) is higher in melting point: 175 to 177 °C for the first, 227 to 228 °C for the second.

Compared with `Cc1ccc(N2C(=O)C(O)=C(C(=O)c3ccc(OC(F)(F)F)cc3)C2c2ccc(Cn3ncnn3)cc2)nn1` (stereo not drawn), `COC(=O)C(C)(C)Cc1ccc(OCc2oc(-c3ccc(C(F)(F)F)cc3)cc2C(=O)O)cc1` is lower in melting point: 258 °C for the first, 153 to 155 °C for the second.

Compared with `COc1ccc(CCC(C)NC(Cc2ccccc2C)=NC#N)cc1` (stereo not drawn), `C=C(C(=O)OC)N(Cc1ccccc1NC(=O)C(F)(F)F)S(=O)(=O)c1ccc(OC)cc1` is higher in melting point: 103 to 104 °C for the first, 120 to 121 °C for the second.

First: Cc1nn(-c2ccc(Br)cc2)cc1C(=O)N(CC(=O)O)c1ccc(OCC(C)(C)C)c(C#N)c1
Second: CC(C)(C)c1ccc(N2CC(COC(=O)c3ccccc3C(=O)O)CC2=O)cc1 (stereo not drawn)
The melting point of the first is higher: 169 to 170 °C for the first, 155 to 157 °C for the second.

First: CCCCc1c(Cc2ccc(-c3ccccc3)c(-c3nnn[nH]3)c2)c(COC)nn1CC(F)(F)F
Second: COCc1nc(C(C)(C)O)c(C(=O)OCc2oc(=O)oc2C)n1Cc1ccc(-c2ccccc2-c2nnn[nH]2)cc1
The melting point of the first is lower: 48 °C for the first, 138 to 140 °C for the second.

First: CN(SC1(C)CCCC1=O)C(=O)ON=C1SC(C)(C)C(=O)N1C (stereo not drawn)
Second: CC(=O)Oc1cc(C)cc2c1C1=C(CCC(C)C1)C(C)(C)O2 (stereo not drawn)
The melting point of the first is higher: 119 to 121 °C for the first, 115 to 119 °C for the second.

First: O=C(CNS(=O)(=O)c1ccccc1)c1ccc(OCc2ccccc2)cc1
Second: O[C@@H]1CN(Cc2ccccc2)C[C@H]1Oc1ccc(OCc2ccccc2)cc1 (relative stereo)
The melting point of the first is higher: 148 to 149 °C for the first, 98 to 100 °C for the second.

First: NCCc1c[nH]c2ccc(NC(N)=O)cc12
Second: NCCc1c2ccccc2n2c1[nH]c(=O)c1ccccc12
The melting point of the first is lower: 188 to 190 °C for the first, greater than 300 °C for the second.

First: O=c1c(-c2ccccc2)c(CNc2ncnc3[nH]cnc23)oc2ccc(F)cc12
Second: Cc1cc(C=O)c2cccc(OCc3ccccc3)c2n1
The melting point of the first is higher: 183 to 186 °C for the first, 129 °C for the second.

Compared with `O=C(O)c1cccc(S(=O)(=O)CCO)c1[N+](=O)[O-]`, `O=C(O)CCC(=O)c1ccc(Cl)c(S(=O)(=O)NCc2ccccc2Cl)c1` is lower in melting point: 178 to 181 °C for the first, 158 °C for the second.

First: CN(C)C1(c2ccccc2)CCC(=CC(=O)NCCCc2ccccc2)CC1 (stereo not drawn)
Second: CC(=O)OCCc1c(N)cc(OCc2ccccc2)c2ccccc12
The melting point of the first is higher: 140 to 142 °C for the first, 76 to 82 °C for the second.

Compared with `c1nc(NCCN2CCOCC2)c2sc3nc(N4CCOCC4)c4c(c3c2n1)CCOC4`, `N[C@H]1CC[C@H](CNc2ncc3ncnc(Nc4ccc(F)c(Cl)c4)c3n2)CC1` is lower in melting point: 184 to 185 °C for the first, 166 to 169 °C for the second.

Compared with `CCc1cccc2c3c([nH]c12)C(CC)(CC(=O)OC)OCC3=NO` (stereo not drawn), `COc1cc(NC(C)=O)c(Cl)cc1C(=O)N[C@H]1CCN(CCCOc2ccc(F)cc2)C[C@H]1OC` (relative stereo) is lower in melting point: 188 to 190 °C for the first, 176 °C for the second.

First: COc1cc(OC)c(C(=O)CBr)cc1C(=O)O
Second: COc1cc(C(C)(C)C)c(OC)cc1I
The melting point of the first is higher: 236 °C for the first, 80.5 to 82.5 °C for the second.

Compared with `COC(=O)C(O)c1ccc([N+](=O)[O-])cc1` (stereo not drawn), `COc1ncc([N+](=O)[O-])cc1C` is higher in melting point: 56 to 58 °C for the first, 95 to 96.5 °C for the second.

Compared with `OC(CCN1CCN(c2ccccn2)CC1)COc1ccc(F)cc1` (stereo not drawn), `CN1CCN(CCc2[nH]c(=O)[nH]c2-c2ccc(F)cc2)CC1` is higher in melting point: 72 to 73 °C for the first, 237 to 239 °C for the second.

Compared with `CC1(CBr)OC(C(Br)(Br)Br)OC1=O` (stereo not drawn), `CC1c2c(Cl)cccc2N=C2NC(=O)CN21` (stereo not drawn) is higher in melting point: 110 to 113 °C for the first, 252 °C for the second.

First: COc1c(F)c(F)c(N)c2c(=O)c(C(=O)O)cn(Cc3ccccc3)c12
Second: O=C(O)c1cc2c3ccccc3n(Cc3ccccc3)c2s1
The melting point of the first is higher: 208 to 210 °C for the first, 194 to 195 °C for the second.

First: COc1cc2c(cc1OC)CN(CCC1OCC(C)(C)c3cc(OC)c(OC)cc31)CC2 (stereo not drawn)
Second: CCCCCC(=O)c1c(CBr)nc2cc(OC)c(OC)cc2c1-c1ccc(OC)c(OC)c1
The melting point of the first is lower: 100 to 105 °C for the first, 146 to 147 °C for the second.

Compared with `COC(=O)CC(=O)C[C@@H]1CC(=O)N1`, `COC(=O)CC[C@@H](NC(=O)[C@H](CO)NC(=O)OC(C)(C)C)C(=O)OC` is higher in melting point: 45 to 46.5 °C for the first, 90 to 92 °C for the second.

First: CNC(=O)c1cccc(I)c1
Second: COC(=O)c1ccc2sc3ccccc3c2c1
The melting point of the first is lower: 94 to 97 °C for the first, 127 to 129 °C for the second.

First: CC(=O)N[C@@H](C)COc1ccc2nc(-c3cc(F)c(OCC4CC4)c(F)c3)oc2c1F
Second: Cc1c(OCC(F)(F)F)ccnc1CSc1nc2cc(OC(F)F)ccc2n1N
The melting point of the first is lower: 146 to 147 °C for the first, 179 to 180 °C for the second.

First: CCc1oc2ccccc2c1C(=O)N(C)Cc1ccc2c(Br)c(O)ccc2c1
Second: O=C(O)C(Cc1ccccc1)Oc1ccc2cc(-c3csc(-c4ccccc4)n3)ccc2c1Br (stereo not drawn)
The melting point of the first is lower: 176 to 178 °C for the first, 220 to 224 °C for the second.

First: CC(C)c1ccc2c(c1)OC1(O)c3ccccc3C(=O)C21N (stereo not drawn)
Second: COc1ccc2c(c1)C1(O)C(=O)c3ccccc3C1(O)O2 (stereo not drawn)
The melting point of the first is lower: 151 to 152 °C for the first, 186 to 189 °C for the second.

First: Cc1ccc(C)c(C(=O)NCCC23CC4CC(CC(C4)C2)C3)c1
Second: CC(=O)NCC1CN(c2ccc(N3CCN(c4nnc(C(F)(F)F)s4)CC3)c(F)c2)C(=O)O1 (stereo not drawn)
The melting point of the first is lower: 153 °C for the first, 255 to 257 °C for the second.

Compared with `C=CCN[C@H]1CC(C(=O)OCC)=C[C@@H](OC(CC)CC)[C@@H]1NC(C)=O`, `CCOC(=O)C1C=NC(C)=C(c2ccccc2)C1=O` (stereo not drawn) is higher in melting point: 100 to 104 °C for the first, 178 to 180 °C for the second.

Compared with `CN(c1cccc2cc(C3=NCC(C(N)=O)S3)[nH]c12)S(=O)(=O)c1cccs1` (stereo not drawn), `COc1ccc2c(c1)N(CCNC(C)=O)C(c1ccccc1)CO2` (stereo not drawn) is lower in melting point: 230 to 232 °C for the first, 125 to 126 °C for the second.

First: CN1c2ccccc2-n2cc(Cc3cccnc3)c(=O)c3cccc1c32
Second: O=C1c2ccccc2C(=O)N1CCc1ccc(F)cc1
The melting point of the first is lower: 96.8 to 97.6 °C for the first, 106 to 107 °C for the second.

Compared with `CS(=O)c1nnc(-c2ccc3occ(-c4cccc(OC(F)(F)F)c4)c3c2)o1` (stereo not drawn), `CCc1noc(-c2ncn(-c3cccc(Oc4ccc(Cl)cc4)c3)c2COC)n1` is lower in melting point: 98 to 99 °C for the first, 68 to 70 °C for the second.

First: O=C(N[C@@H](CO)C(=O)N1CC(C(=O)O)C1)OCc1ccccc1
Second: O=C(OCc1ccccc1)c1cc(I)ccc1OCc1ccccc1
The melting point of the first is higher: 138 to 143 °C for the first, 72 to 73 °C for the second.

First: Cc1cc(C)nc(NC(=O)C(N)CC(C)C)c1 (stereo not drawn)
Second: COC(=O)c1cc2nc(C)oc2cc1C(=O)OC
The melting point of the first is lower: 78 °C for the first, 121 to 124 °C for the second.

Compared with `Clc1ccc(C23CCN(CC2)C3)cn1`, `Cc1c(-c2ccccc2)n[nH]c1OCN1CCCC1` is higher in melting point: 70 to 72 °C for the first, 88 °C for the second.

`CC(CF)(CF)n1cc(C(=O)O)c(=O)c2cc(F)c(N3C[C@@H]4NCCO[C@@H]4C3)cc21` and `COC(=O)CCc1ccc(N2CCN(c3ccc(CN)cc3C)C2=O)cc1` cannot be ordered by melting point: greater than 250 °C for the first, greater than 275 °C for the second.

First: CCc1nc2c(cnn2CC)c(NC2CCOCC2)c1CNC(=O)c1cccc(C(=O)NCc2ccc(OC)c(-c3cccc(CN4CCN(C)CC4)c3)c2)c1
Second: N#CCCNC(=O)c1cc(F)cc(-c2cccc3cc(Cc4ccc(F)c(Cl)c4)sc23)c1
The melting point of the first is lower: 117 to 119 °C for the first, 127 to 128 °C for the second.

First: CC(C#N)(COc1ccccc1C(F)(F)F)NC(=O)c1ccc(C(=O)c2ccccc2)cc1 (stereo not drawn)
Second: CCOC(=NC(=O)c1ccccc1)N1Cc2ccccc2-c2ccccc2C1
The melting point of the first is higher: 121 to 123 °C for the first, 116 to 117 °C for the second.

First: Cc1c(Cl)c([N+](=O)[O-])cc([N+](=O)[O-])c1Cl
Second: Cc1ccncc1Cn1nnnc1-c1ccc(Cl)c(Cl)c1
The melting point of the first is lower: 131 to 132 °C for the first, 167 to 169 °C for the second.

Compared with `O=S(=O)(NC=NCCCOc1cccc(CN2CCCCC2)c1)c1ccc(Cl)cc1`, `COC1(c2ccc(Sc3ccc4ccccc4c3)s2)CCOCC1` is lower in melting point: 75 to 79 °C for the first, 70 °C for the second.

Compared with `CC(C)(C)OC(=O)NC1CCCOCC=CC2CC2(C(=O)NS(=O)(=O)C2CC2)NC(=O)C2CC(OCc3ccccc3)CN2C1=O` (stereo not drawn), `COC1(c2cc(F)cc(Sc3ccc(/C(C)=N/O)c(O)c3)c2)CCOCC1` is lower in melting point: 147 to 149 °C for the first, 140 to 142 °C for the second.

First: CNC(=O)Nc1nnc(C(F)F)s1
Second: CCCCCCCCCCc1nc(N(C)C)nc(OC)c1Br
The melting point of the first is higher: 198 to 200 °C for the first, 45 to 46 °C for the second.

First: Cc1c(CO)c(CO)c2n1Cc1ccccc1C2
Second: CCCCCCCCCCCCCCCCOC(=O)CCCCCCCCCCCCC
The melting point of the first is higher: 99 to 101 °C for the first, 54 to 56 °C for the second.
